{"source": "patent US20160324836A1", "about": "“INJECTABLE DEPOT FORMULATIONS” (pSivida US.Inc., priority 2015, published 2016)", "experiment": "Solubility in ethanol", "type": "physicochemical", "conditions": "organic solvent or mixture", "procedure": "In preferred embodiments, the solvent is ethanol. […] Similarly, preferred kinase inhibitors, such as apatinib, axitinib, cabozantinib, cediranib, crenolanib, foretinib, lenvatinib, linifanib, masitinib, motesanib, nintedanib, pazopanib, pegaptanib, regorafenib, semaxanib, sorafenib, sunitinib, tivozanib, toceranib, vandetanib, vatalanib, bafetinib, bosutinib, dasatinib, imatinib, nilotinib, ponatinib, radotinib, and SU6656, are generally soluble in ethanol, e.g., at 1.0 mg/mL or higher."}
{"molecule": "CNC(=O)c1cc(Oc2ccc(NC(=O)Nc3ccc(Cl)c(C(F)(F)F)c3)cc2)ccn1", "note": "[sorafenib]", "values": [{"measurement": "solubility", "value": "~3300", "unit": "µg/mL"}]}
